# Measured values from patent publication US6525001B1, “Substituted pyrimidine and pyridine herbicides” (Mid-American Commercialization Corporation, priority 1997, dated 2003).
# Legend:
# Format in all cases: in vivo
# [1] = test system: dallisgrass (Paspalum dilatatum); assay: Test E pre-/postemergence/post directed; set-up: key: 0 is no effect; 100 is complete control
# Description: (§1) Seeds, tubers, or plant parts of alexandergrass (Brachiaria plantaginea), annual bluegrass (Poa annua), arrowleaf sida (Sida rhombifolia), barnyardgrass (Echinochloa crus-galli), bermudagrass (Cynodon dactylon), citrus (Citrus sinensis), common chickweed (Stellaria media), common purslane (Portulaca oleracea), common ragweed (Ambrosia elatior), common groundsel (Senecio vulgaris), dallisgrass (Paspalum dilatatum), goosegrass (Eleusine indica), green foxtail (Setaria viridis), guineagrass (Panicum maximum), itchgrass (Rottboellia exaltata), johnson grass (Sorghum halepense), kochia (Kochia scoparia), large crabgrass (Digitaria sanguinalis), leafy spurge (Euphorbia esula), pitted morningglory (Ipomoea lacunosa), purple nutsedge (Cyperus rotundus), quackgrass (Agropyron repens), Russian thistle (Salsola kali), sandbur (Cenchrus echinatus), sourgrass (Trichachne insularis), Spanishneedles (Bidens bipinnata), sugarcane (Saccharum officinarum), surinam grass (Brachiaria decumbens) and tall mallow (Malva sylvestris) were planted into greenhouse pots of flats containing greenhouse planting medium. Plant species were grown grown in separate pots or individual compartments. Preemergence applications were made within one day of planting the seed or plant part. Postemergence applications were applied when the plants were in the two to four leaf stage (three to twenty cm).
# (§2) Test chemicals were formulated in a non-phytotoxic solvent mixture which included a surfactant and applied preemergence to the soil surface, postemergence to the plants or as a post directed spray to plants and soil at the base of the target species. Untreated control plants and treated plants were placed in the greenhouse and visually evaluated for injury 13 to 21 days after herbicide application. Plant response ratings, summarized in Table E, are based on a 0 to 100 scale where 0 is no injury and 100 is complete control. A dash (−) response means no test result.
# [2] = test system: tall mallow (Malva sylvestris); assay: Test E pre-/postemergence/post directed; set-up: key: 0 is no effect; 100 is complete control; settings: PREEMERGENCE
# Description: as §1, §2
# [3] = test system: guineagrass (Panicum maximum); assay: Test E pre-/postemergence/post directed; set-up: key: 0 is no effect; 100 is complete control
# Description: as §1, §2
# [4] = test system: common purslane (Portulaca oleracea); assay: Test E pre-/postemergence/post directed; set-up: key: 0 is no effect; 100 is complete control
# Description: as §1, §2
# [5] = test system: cocklebur (Xanthium strumarium); assay: Test B pre-/postemergence; set-up: key: 0 is no effect; 10 is complete control
# Procedure, shortened: (§3)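 Scored visually 0 (none) to 10 (complete control) against untreated plants after twelve to sixteen greenhouse days. Test chemicals, formulated in surfactant-containing non-phytotoxic solvent, applied to soil after planting and, separately, onto 1- to 4-leaf (2–18 cm) plants.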
# [6] = test system: pigweed (Amaranthus retroflexus); assay: Test B pre-/postemergence; set-up: key: 0 is no effect; 10 is complete control
# Procedure, shortened: as §3
# [7] = test system: blackgrass (Alopecurus myosuroides); assay: Test B pre-/postemergence; set-up: key: 0 is no effect; 10 is complete control
# Procedure, shortened: as §3
# [8] = test system: broadleaf signalgrass (Brachiaria decumbens); assay: Test B pre-/postemergence; set-up: key: 0 is no effect; 10 is complete control
# Procedure, shortened: as §3
# [9] = test system: momingglory (Ipomoea hederacea); assay: Test B pre-/postemergence; set-up: key: 0 is no effect; 10 is complete control
# Procedure, shortened: as §3
# [10] = Rate 250 g/ha, Postemergence (so in the source)
# [11] = Preemergence, Rate 62 g/ha, scale of 0 to 10
compound,measurement,setting,value
Cc1cnc(-n2cnc(C(F)(F)F)c2)nc1Cc1cccc(C(F)(F)F)c1 [Compound 44],"Plant response rating, Dallisgrass","[1]; POSTEMERGENCE, Rate 125 g/ha",10
same,"Plant response rating, Dallisgrass","[1]; POSTEMERGENCE, Rate 250 g/ha",10
same,"Plant response rating, Dallisgrass","[1]; PREEMERGENCE, Rate 32 g/ha",65
same,"Plant response rating, Dallisgrass","[1]; PREEMERGENCE, Rate 64 g/ha",80
same,"Plant response rating, Dallisgrass","[1]; PREEMERGENCE, Rate 125 g/ha",90
same,"Plant response rating, Dallisgrass","[1]; PREEMERGENCE, Rate 250 g/ha",100
same,"Plant response rating, Tall Mallow",[2]; Rate 32 g/ha,80
same,"Plant response rating, Tall Mallow",[2]; Rate 64 g/ha,80
same,"Plant response rating, Tall Mallow",[2]; Rate 125 g/ha,98
same,"Plant response rating, Tall Mallow",[2]; Rate 250 g/ha,98
same,"Plant response rating, Guineagrass","[3]; POSTEMERGENCE, Rate 125 g/ha",85
same,"Plant response rating, Guineagrass","[3]; POSTEMERGENCE, Rate 250 g/ha",85
same,"Plant response rating, Guineagrass","[3]; PREEMERGENCE, Rate 32 g/ha",20
same,"Plant response rating, Guineagrass","[3]; PREEMERGENCE, Rate 64 g/ha",80
same,"Plant response rating, Guineagrass","[3]; PREEMERGENCE, Rate 125 g/ha",100
same,"Plant response rating, Guineagrass","[3]; PREEMERGENCE, Rate 250 g/ha",100
same,"Plant response rating, Com. purslane","[4]; POSTEMERGENCE, Rate 125 g/ha",70
same,"Plant response rating, Com. purslane","[4]; POSTEMERGENCE, Rate 250 g/ha",70
same,"Plant response rating, Com. purslane","[4]; PREEMERGENCE, Rate 32 g/ha",80
same,"Plant response rating, Com. purslane","[4]; PREEMERGENCE, Rate 64 g/ha",100
same,"Plant response rating, Com. purslane","[4]; PREEMERGENCE, Rate 125 g/ha",100
same,"Plant response rating, Com. purslane","[4]; PREEMERGENCE, Rate 250 g/ha",100
same,"Plant response rating, Cocklebur","[5]; Rate 62 g/ha, Postemergence",8
same,Cocklebur plant response rating,"[5]; Rate 62 g/ha, Preemergence",2
same,"Plant response rating, Cocklebur","[5]; Rate 125 g/ha, Postemergence",9
same,Cocklebur plant response rating,"[5]; Rate 125 g/ha, Preemergence",5
same,"Plant response rating, Cocklebur","[5]; Rate 250 g/ha, Postemergence",9
same,"Plant response rating, Cocklebur",[5]; [10],8
same,"Plant response rating, Redroot pigweed","[6]; Rate 62 g/ha, Postemergence",9
same,Redroot pigweed plant response rating,"[6]; Rate 62 g/ha, Preemergence",7
same,Redroot pigweed plant response rating,"[6]; Rate 125 g/ha, Postemergence",10
same,Redroot pigweed plant response rating,"[6]; Rate 125 g/ha, Preemergence",9
same,"Plant response rating, Redroot pigweed","[6]; Rate 250 g/ha, Postemergence",10
same,"Plant response rating, Redroot pigweed",[6]; [10],10
same,"Plant response rating, Blackgrass","[7]; Rate 62 g/ha, Postemergence",4
same,Blackgrass plant response rating,"[7]; Rate 62 g/ha, Preemergence",5
same,"Plant response rating, Blackgrass","[7]; Rate 125 g/ha, Postemergence",5
same,Blackgrass plant response rating,"[7]; Rate 125 g/ha, Preemergence",6
same,"Plant response rating, Blackgrass","[7]; Rate 250 g/ha, Postemergence",7
same,"Plant response rating, Blackgrass",[7]; [10],9
same,"Plant response rating, B. signalgrass","[8]; Rate 62 g/ha, Postemergence",3
same,B. signalgrass plant response rating,"[8]; Rate 62 g/ha, Preemergence",6
same,"Plant response rating, B. signalgrass","[8]; Rate 125 g/ha, Postemergence",4
same,B. signalgrass plant response rating,"[8]; Rate 125 g/ha, Preemergence",8
same,"Plant response rating, B. signalgrass","[8]; Rate 250 g/ha, Postemergence",5
same,"Plant response rating, B. signalgrass","[8]; Rate 250 g/ha, Postemergence as printed in head r139 (second section for compounds 26-50)",8
same,"Plant response rating, Morningglory","[9]; Rate 62 g/ha, Postemergence",10
same,Morningglory plant response rating,"[9]; Rate 62 g/ha, Preemergence",8
same,Morningglory plant response rating,"[9]; Rate 125 g/ha, Preemergence",9
same,"Plant response rating, Morningglory","[9]; Rate 250 g/ha, Postemergence",10
same,"Plant response rating, Morningglory",[9]; [10],10
Cc1cnc(-c2ccc(C(F)(F)F)cc2)nc1C(=O)c1ccc(C(F)(F)F)cc1 [Compound 74],"Plant response rating, Cocklebur",[5]; [11],0
same,Cocklebur plant response rating,"[5]; Rate 62 g/ha, Postemergence",1
same,Cocklebur plant response rating,"[5]; Rate 125 g/ha, Postemergence",5
same,"Plant response rating, Cocklebur","[5]; Rate 125 g/ha, Preemergence",0
same,"Plant response rating, Cocklebur","[5]; Rate 250 g/ha, Postemergence",5
same,"Plant response rating, Cocklebur","[5]; Rate 250 g/ha, Preemergence",0
same,"Plant response rating, Cocklebur","[5]; Rate 500 g/ha, Postemergence",5
same,"Plant response rating, Cocklebur","[5]; Rate 500 g/ha, Preemergence",0
same,"Plant response rating, Redroot pigweed",[6]; [11],0
same,Redroot pigweed plant response rating,"[6]; Rate 62 g/ha, Postemergence",2
same,Redroot pigweed plant response rating,"[6]; Rate 125 g/ha, Postemergence",2
same,"Plant response rating, Redroot pigweed","[6]; Rate 125 g/ha, Preemergence",0
same,"Plant response rating, Redroot pigweed","[6]; Rate 250 g/ha, Postemergence",8
same,"Plant response rating, Redroot pigweed","[6]; Rate 250 g/ha, Preemergence",0
same,"Plant response rating, Redroot pigweed","[6]; Rate 500 g/ha, Postemergence",8
same,"Plant response rating, Redroot pigweed","[6]; Rate 500 g/ha, Preemergence",0
same,"Plant response rating, Blackgrass",[7]; [11],0
same,Blackgrass plant response rating,"[7]; Rate 62 g/ha, Postemergence",0
same,Blackgrass plant response rating,"[7]; Rate 125 g/ha, Postemergence",0
same,"Plant response rating, Blackgrass","[7]; Rate 125 g/ha, Preemergence",0
same,"Plant response rating, Blackgrass","[7]; Rate 250 g/ha, Postemergence",0
same,"Plant response rating, Blackgrass","[7]; Rate 250 g/ha, Preemergence",0
same,"Plant response rating, Blackgrass","[7]; Rate 500 g/ha, Postemergence",1
same,"Plant response rating, Blackgrass","[7]; Rate 500 g/ha, Preemergence",0
same,B. signalgrass plant response rating,"[8]; Rate 62 g/ha, Postemergence",1
same,B. signalgrass plant response rating,"[8]; Rate 62 g/ha, Preemergence",0
same,B. signalgrass plant response rating,"[8]; Rate 125 g/ha, Postemergence",1
same,"Plant response rating, B. signalgrass","[8]; Rate 125 g/ha, Preemergence",0
same,"Plant response rating, B. signalgrass","[8]; Rate 250 g/ha, Postemergence",1
same,"Plant response rating, B. signalgrass","[8]; Rate 250 g/ha, Preemergence",0
same,"Plant response rating, B. signalgrass","[8]; Rate 500 g/ha, Postemergence",2
same,"Plant response rating, B. signalgrass","[8]; Rate 500 g/ha, Preemergence",0
same,"Plant response rating, Morningglory",[9]; [11],0
same,Morningglory plant response rating,"[9]; Rate 62 g/ha, Postemergence",1
same,Morningglory plant response rating,"[9]; Rate 125 g/ha, Postemergence",1
same,"Plant response rating, Morningglory","[9]; Rate 125 g/ha, Preemergence",0
same,"Plant response rating, Morningglory","[9]; Rate 250 g/ha, Postemergence",7
same,"Plant response rating, Morningglory","[9]; Rate 250 g/ha, Preemergence",0
same,"Plant response rating, Morningglory","[9]; Rate 500 g/ha, Postemergence",7
same,"Plant response rating, Morningglory","[9]; Rate 500 g/ha, Preemergence",0
